Data on 9 compounds can be found in PubChem BioAssay (NCI).

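How tested: cells in 96-well plates exposed to compound for 48 hours at five concentrations. TGI: total growth inhibition.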

Experiment in all cases: inhibition of tumour cell growth, NCI panel, 48 h
Assay [1] deals with SF-268 CNS.
Assay [2] deals with COLO 205 colon.
Assay [3] concerns ACHN renal.
Assay [4] deals with MDA-MB-231 breast.
The subject of assay [5] is DU-145 prostate.
The subject of assay [6] is HOP-62 NSCLC.
Assay [7] deals with NCI/ADR-RES ovarian.
Assay [8] has as its system SNB-19 CNS.
For assay [9], the system named is SF-539 CNS.
The test system of assay [10] is MDA-MB-435.
Assay [11] relates to OVCAR-5 ovarian.
Assay [12] deals with RPMI-8226 leukemia.
The subject of assay [13] is OVCAR-4 ovarian.

As for `C/C=C/C(CC(O)(C(F)(F)F)C(F)(F)F)=N/NC(N)=S`, the TGI in assay [1], in assay [2], in assay [3], in [4], in assay [5] and in [6] was more than 10 µM throughout. Also, the TGI in assay [7], in assay [8], in assay [9], in [10], in assay [11] and in assay [12] was more than 10 µM each time. In [13], this compound registered a TGI of more than 10 µM.
As to `Cc1[nH]c(=O)nc2nc3ccc(Cl)cc3c(NCCNCCO)c12`, the TGI in assay [1] is 27.9 µM; in [2], 21.6 µM; in [3] it was 27.4 µM; in assay [4], 24 µM; in assay [5] it was 29.4 µM; in assay [6], 20.6 µM. The TGI in assay [7] was 42.3 µM; in assay [8] it was 21.4 µM; in assay [9] it was 20.6 µM; in [10], 25.7 µM; in assay [11], 26.1 µM; in assay [12], more than 100 µM. The compound also returned a TGI in assay [13] of 26.2 µM.
Regarding `Cc1ccc(C2SCC(=O)N2c2ccc(-n3c(-c4ccccc4)nc4ccccc4c3=O)cc2)cc1` (configuration not stated), the TGI was more than 100 µM in [1]; more than 100 µM in assay [2]; 86.4 µM in [3]; 39.6 µM in assay [4]; more than 100 µM in [5]; 53.9 µM in assay [6]. The TGI in [7] was 63.1 µM; in assay [8], more than 100 µM; in [9], 39.6 µM; in assay [10], 65.3 µM; in assay [11], more than 100 µM; in assay [12] it was 55.1 µM. Moreover, the TGI in [13] is more than 100 µM.
Regarding `O=[N+]([O-])c1ccc(CN(CCCl)OCCCl)cc1`, the TGI in [1], in assay [2], in assay [3], in [4], in assay [5] and in assay [6] was more than 100 µM each time. Also, the TGI in assay [7], in [8], in assay [9], in [10], in [11] and in [12] was more than 100 µM each time. Also, the TGI in assay [13] was more than 100 µM.
On to `C=CCc1cccc2cc(C(=O)NCc3ccccc3)c(=N)oc12`, for which the TGI in assay [1], in assay [2], in [3], in assay [4], in assay [5] and in assay [6] was more than 100 µM throughout. For the same compound, the TGI in assay [7], in assay [8], in assay [9], in assay [10], in [11] and in assay [12] was more than 100 µM throughout. In assay [13], the TGI was more than 100 µM.
As for `COc1cc(C2c3cc4c(cc3OC(N3CCCCC3)C2C)OCO4)cc(OC)c1O` (configuration not stated), the TGI in assay [1] is more than 53.8 µM; in assay [2] it was 38.6 µM; in [3] it was 23.1 µM; in assay [4] it was 28.1 µM; in assay [5], 49.6 µM; in assay [6], 25.9 µM. For the same compound, the TGI is 18.5 µM in assay [7]; 53.7 µM in [8]; 25.5 µM in assay [9]; 5.92 µM in [10]; 41.3 µM in assay [11]; more than 76.3 µM in assay [12]. For the same compound, in [13], the TGI is more than 61.2 µM.
On to `Brc1ccc2[nH]cc(-c3csc(-c4c[nH]c5ccccc45)n3)c2c1`, for which the TGI in assay [1] came out at 8.91 µM; in [2], 7.72 µM; in [3], 13.2 µM; in assay [4] it was 6.37 µM; in assay [5], 9.15 µM; in assay [6], 16.4 µM. The TGI turned out to be 10.5 µM in assay [7]; 9.6 µM in [8]; 16.7 µM in [9]; 15.7 µM in assay [10]; 4.86 µM in [11]; 12.1 µM in assay [12]. This compound registered a TGI in [13] of 28.1 µM.
As to `CC(C)(C)OC(=O)N(CCCCN(CCCNC(=O)C(F)(F)F)C(=O)OC(C)(C)C)CCCNC(=O)C(F)(F)F`, the TGI in assay [1], in assay [2], in assay [3], in assay [4], in assay [5] and in assay [6] was more than 100 µM throughout. Further, the TGI in assay [7], in [8], in assay [9], in [10], in [11] and in [12] was more than 100 µM each time. In assay [13], the TGI was more than 100 µM.
As for `CC1(C)OC(C(=O)Nc2cc3c4ccccc4ccc3c3ccccc23)C(C(=O)N2CCCCC2)O1` (configuration not stated), the TGI in assay [1], in [2], in [3], in assay [4], in [5] and in assay [6] was more than 100 µM in each case. The TGI was more than 100 µM in [7]; more than 100 µM in [8]; more than 100 µM in assay [9]; more than 100 µM in [10]; more than 100 µM in assay [11]; more than 43.2 µM in assay [12]. This compound gave a TGI in assay [13] of more than 100 µM.
